Test results: publication PMC7097682, “Safety and Pharmacokinetics of CXCR4 Peptide Antagonist, LY2510924, in Combination with Durvalumab in Advanced Refractory Solid Tumors” (Journal of Pancreatic Cancer, 2020)
Where a SMILES comes first, the peptide text is derived from it. Bridges are numbered along the chain shown (N, C = ends). [ ]: non-standard residue; d: D form. 2Nal = N[C@@H](Cc1ccc2ccccc2c1)C(=O)O; Lys(iPr) = CC(C)NCCCC[C@H](N)C(=O)O

Tests used:
clinical = details: human, in vivo, sc, t1/2
Description: (§1) Blood samples were drawn from all patients for the assessment of LY2510924 in plasma and durvalumab concentrations in serum at prespecified time points. The PK of LY2510924 was assessed through intensive sampling, and the PK parameter estimates were calculated by standard noncompartmental methods of analysis. PK data for durvalumab were summarized by sampling time points, and a formal noncompartmental analysis was not conducted. Samples were analyzed using a validated liquid chromatography with tandem mass spectrometry. Summary statistics was tabulated for the PK parameters of LY2510924 and durvalumab by dose and study day.

cancer xenograft models = details: cell lines that express high levels of CXCR4; cited from earlier work
[1] = tested on: syngeneic squamous cell carcinoma model; details: single agent or combination; no reference printed for the sentence; cited from earlier work
[2] = LY2510924 pharmacokinetics in plasma, noncompartmental analysis; details: for AUC(0-inf) / Cmax: n = 3, geometric mean (CV%)
Description: as §1

patients = tested on: patients; design: method as in PMID 24727324; details: 30 mg/day SC, monotherapy; cited from earlier work
[3] = Durvalumab serum concentrations by sampling time point; assay type: in vivo, human
Description: as §1

pancreatic cancer model = details: added to anti-PD-L1 monoclonal antibody regimen; cited from earlier work
[4] = human, plasma, sc, Day 15, 20 mg/day SC
[5] = human, plasma, sc, Day 15, 30 mg/day SC

CC(C)NCCCC[C@H](NC(=O)[C@H]1CCC(=O)N[C@@H](Cc2ccccc2)C(=O)N[C@@H](Cc2ccc(O)cc2)C(=O)N[C@@H](CCCCNC(C)C)C(=O)N[C@H](CCCNC(=N)N)C(=O)N[C@@H](Cc2ccc3ccccc3c2)C(=O)NCC(=O)N1)C(N)=O [LY2510924] (FY[Lys(iPr)][dR][2Nal]G[dE][Lys(iPr)]-NH2; lactam N-7)
half-life (clinical): 5.11 h
tumor growth and metastasis (cancer xenograft models): dose-dependent inhibition
antitumor activity [1]: minimal activity
PK variability on AUC ([2]; 20, 30 and 40 mg daily SC): 69%
PK variability on Cmax ([2]; 20, 30 and 40 mg daily SC): ~60%
mean apparent volume of distribution ([2]; 20, 30 and 40 mg daily SC, all nine patients): 59 L
CL/F ([2]; human, plasma, sc, 40 mg, mean apparent clearance, 20, 30 and 40 mg daily SC, all nine patients): 117 mL/min
AUC(0-inf) [2, 4]: 1960 ng·h/mL
AUC(0-inf) [2, 5]: 4320 ng·h/mL
Cmax ([2]; human, plasma, sc, Day 1, 20 mg/day SC, with durvalumab): 747 ng/mL
Cmax ([2]; human, plasma, sc, Day 1, 30 mg/day SC, with durvalumab): 682 ng/mL
Cmax ([2]; human, plasma, sc, Day 1, 40 mg/day SC, with durvalumab): 1860 ng/mL
Cmax [2, 4]: 367 ng/mL
Cmax [2, 5]: 847 ng/mL
Cmax ([2]; human, plasma, sc, Day 15, 40 mg/day SC): 1680 ng/mL
patients with dose-limiting toxicity (grade 3 increase in ANC >25,000 cells/μL for >5 days) (patients): two

durvalumab: selective, high-affinity, human immunoglobulin G1 monoclonal antibody that blocks PD-L1 binding to PD-1 and CD80
peak concentration, geometric mean ([3]; week 0, 1500 mg Q4W IV infusion over 60 min, n = 8, %CV 33.2%): 418 µg/mL
trough concentration, geometric mean ([3]; week 4, 1500 mg Q4W IV, n = 8, %CV 50.3%): 106 µg/mL
trough concentration, geometric mean ([3]; week 8, 1500 mg Q4W IV, n = 4, %CV 58.4%): 133 µg/mL
peak concentration, geometric mean ([3]; week 12, 1500 mg Q4W IV, n = 4, %CV 30.8%): 549 µg/mL
trough concentration, geometric mean ([3]; week 12, 1500 mg Q4W IV, n = 4, %CV 46.8%): 126 µg/mL
trough concentration, geometric mean ([3]; week 20, 1500 mg Q4W IV, n = 1): 74.9 µg/mL

c1cc(CN2CCCNCCNCCCNCC2)ccc1CN1CCCNCCNCCCNCC1 [AMD3100]
effect on T cells and antitumor efficacy of anti-PD-L1 monoclonal antibody (pancreatic cancer model): T cell redistribution and rapid accumulation near tumors, enhancing the antitumor efficacy
